The values that follow come from patent US20080076750A1, “Azetidinone Derivatives and Methods of Use Thereof” (priority 2006, published 2008).

T1 sequence (O95180 whole entry): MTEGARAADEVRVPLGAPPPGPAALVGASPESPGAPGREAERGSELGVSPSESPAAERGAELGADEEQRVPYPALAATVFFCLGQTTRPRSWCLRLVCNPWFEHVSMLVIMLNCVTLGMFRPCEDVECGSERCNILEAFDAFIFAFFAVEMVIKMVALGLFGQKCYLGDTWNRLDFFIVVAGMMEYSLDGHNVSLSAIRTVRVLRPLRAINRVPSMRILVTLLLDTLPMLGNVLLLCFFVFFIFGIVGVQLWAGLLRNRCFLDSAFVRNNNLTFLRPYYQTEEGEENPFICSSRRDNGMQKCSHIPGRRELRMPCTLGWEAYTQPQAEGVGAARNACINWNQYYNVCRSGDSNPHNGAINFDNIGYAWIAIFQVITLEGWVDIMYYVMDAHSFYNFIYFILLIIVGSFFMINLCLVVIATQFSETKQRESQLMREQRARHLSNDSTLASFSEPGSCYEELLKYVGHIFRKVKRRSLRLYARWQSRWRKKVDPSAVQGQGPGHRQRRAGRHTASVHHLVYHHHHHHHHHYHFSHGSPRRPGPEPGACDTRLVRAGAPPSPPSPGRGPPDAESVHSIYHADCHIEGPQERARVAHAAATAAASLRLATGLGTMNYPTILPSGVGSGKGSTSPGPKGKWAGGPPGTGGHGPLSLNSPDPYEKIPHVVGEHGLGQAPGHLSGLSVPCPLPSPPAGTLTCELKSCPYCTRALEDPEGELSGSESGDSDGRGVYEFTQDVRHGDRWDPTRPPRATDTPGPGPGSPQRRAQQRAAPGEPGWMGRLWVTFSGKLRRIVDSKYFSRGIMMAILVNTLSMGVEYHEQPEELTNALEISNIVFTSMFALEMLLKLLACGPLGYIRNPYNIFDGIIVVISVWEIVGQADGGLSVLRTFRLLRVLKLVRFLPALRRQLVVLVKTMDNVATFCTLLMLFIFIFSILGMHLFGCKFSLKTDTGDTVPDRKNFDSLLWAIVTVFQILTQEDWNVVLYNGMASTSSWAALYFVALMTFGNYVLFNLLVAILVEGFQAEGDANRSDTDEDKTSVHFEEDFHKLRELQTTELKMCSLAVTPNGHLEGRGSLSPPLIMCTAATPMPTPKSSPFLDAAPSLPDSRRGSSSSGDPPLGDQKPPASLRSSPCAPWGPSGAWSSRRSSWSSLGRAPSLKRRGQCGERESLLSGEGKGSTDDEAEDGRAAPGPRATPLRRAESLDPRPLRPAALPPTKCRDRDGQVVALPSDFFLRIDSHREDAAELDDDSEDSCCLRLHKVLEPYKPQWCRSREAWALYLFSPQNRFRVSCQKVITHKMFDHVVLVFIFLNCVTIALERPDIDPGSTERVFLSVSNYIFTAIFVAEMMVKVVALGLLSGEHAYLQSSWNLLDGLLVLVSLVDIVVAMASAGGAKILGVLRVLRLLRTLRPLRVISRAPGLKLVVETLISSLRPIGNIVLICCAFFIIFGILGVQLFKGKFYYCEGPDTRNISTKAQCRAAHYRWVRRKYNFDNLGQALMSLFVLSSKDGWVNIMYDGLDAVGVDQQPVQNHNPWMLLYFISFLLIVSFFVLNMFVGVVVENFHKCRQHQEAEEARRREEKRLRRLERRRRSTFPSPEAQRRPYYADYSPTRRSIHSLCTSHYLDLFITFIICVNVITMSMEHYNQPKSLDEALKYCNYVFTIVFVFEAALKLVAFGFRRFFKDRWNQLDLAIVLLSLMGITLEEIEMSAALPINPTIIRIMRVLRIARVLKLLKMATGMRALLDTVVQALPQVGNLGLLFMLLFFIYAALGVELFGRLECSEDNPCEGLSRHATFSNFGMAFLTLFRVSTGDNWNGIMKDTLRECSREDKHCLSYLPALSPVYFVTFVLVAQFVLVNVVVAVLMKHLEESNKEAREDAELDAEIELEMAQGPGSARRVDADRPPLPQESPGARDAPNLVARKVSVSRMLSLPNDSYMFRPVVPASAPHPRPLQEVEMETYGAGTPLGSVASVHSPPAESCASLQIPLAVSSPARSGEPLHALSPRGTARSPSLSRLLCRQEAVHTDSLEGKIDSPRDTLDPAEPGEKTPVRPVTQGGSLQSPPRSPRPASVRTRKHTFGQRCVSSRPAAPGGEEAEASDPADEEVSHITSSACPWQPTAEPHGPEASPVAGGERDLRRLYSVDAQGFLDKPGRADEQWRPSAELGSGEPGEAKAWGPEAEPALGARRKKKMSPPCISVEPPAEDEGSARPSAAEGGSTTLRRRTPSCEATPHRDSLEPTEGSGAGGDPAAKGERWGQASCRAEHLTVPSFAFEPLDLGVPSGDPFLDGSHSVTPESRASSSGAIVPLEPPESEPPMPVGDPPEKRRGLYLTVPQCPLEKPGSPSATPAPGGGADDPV

The first assay has as its target T1, human Cav3.2 (Homo sapiens, UniProt O95180).
T1 construct: expressed in transfected cells
Description: IonWorks Screen for hCaV3.2. The settings on record: IonWorks HT, HEK cells expressing human Cav3.2, 10 minutes incubation, pulse 10; read-out: IW hCav3.2 IC50. It is filed as cell-based. An excerpt:
Functional evaluation of voltage-gated ion channels can be used to determine potency and/or single concentration efficacy of the Azetidinone Derivatives. Two different methodologies can be used to measure ion currents: the Ionworks HT (Molecular Devices, Sunnyvale, Calif.) a moderate throughput voltage clamp screening platform that utilizes 96-well compound plates and conventional whole cell patch clamp for lower throughput, higher fidelity determinations.
HEK cells are transiently transfected and then selected for stable heterologous expression of different channel proteins of interest. Calcium channel cell lines expressed a resting potassium current, human Kir2.1, and the pore forming α-subunit of voltage-gated calcium channels. In the case of Cav2.1 cells the auxiliary subunit, β2α, is also expressed. Calcium channel lines that are used to generate the data will express either human Cav3.2, rat Cav3.2 or human Cav2.1. The human heart sodium channel, hNav1.5, are stably expressed in CHO cells.
Cell lines can be grown at 37° C. in humidified incubators, equilibrated with 95% air/5% CO2. CHO cells can be grown in Ham's F-12 medium. HEK cells can be grown in DMEM. All media are supplemented with 10% heat-inactivated fetal bovine serum, penicillin, streptomycin and appropriate selection antibiotics (zeocin, geneticin and/or hygromycin). Cells are passaged when 80% confluent or less.
IonWorks Screen for hCaV3.2
The extracellular buffer for experiments using this instrument contained the following (mM) (NaCl 125, HEPES 10, KCl 5.4, CaCl2 1.8, MgCl2 1.8, 0.2 BaCl2 pH 7.35). The IonWorks uses amphotericin to gain electrical access to the cell interior. The internal solution contained (mM concentrations): 130 K-gluconate, 20 KCl, 5 HEPES-KOH (pH 7.25), 2 CaCl2, 1 MgCl2. Amphotericin added at 5 mg in 65 mL when present (in 650 μL DMSO). All internal and external solutions for this experiment contain 1% DMSO. Cells were acutely trypsinized from a T-75 flask and resuspended in extracellular buffer at a density of 2×10^5 cells/mL.
Experiments were performed at room temperature. Transmembrane potential was held at −100 mV for 5 seconds prior to running the voltage protocol. During this time leak currents were measured during a step to −110 mV (200 milliseconds), T-type calcium currents were activated with a 250 millisecond step to −20 mV. This depolarization step was repeated for a total of 10 pulses with an interpulse interval of 1 second. Data were excluded if the following acceptance criteria were not met: total resistance for the pre-compound scan>65 MΩ, pre-compound current>250 pA, post compound total resistance>50 MΩ.
T-type currents were measured as the peak inward current minus the current at the end of the 250 msec step to −20 mV. After the recoding configuration was established there was a pre-compound measurement of current amplitude. Compound was added as a 3× solution containing 1% DMSO. After incubation with compound for 10 minutes currents were measured again. The current amplitude after compound addition was divided by the pre-compound current for pulse 10 to determine the fraction of current remaining after compound addition. For each compound, 8-point concentration-effect relationships were measured with ½ log serial dilutions.
In the case of `O=C(Nc1ccc(F)c(F)c1)N1CCC2(CC1)C(=O)N(c1ccccc1)C2c1ccc(Cl)cc1` (stereo not drawn), the concentration for half-maximal inhibition (IC50) stood at 359 nM.
On the same count and under the same terms, as for `CC(C)N1C(=O)C2(CCN(C(=O)Nc3ccc(Cl)cc3)CC2)C1c1ccc(Cl)cc1` (stereo not drawn), the figure is 423 nM.
Regarding `CC(C)N1C(=O)C2(CCN(C(=O)Nc3cc(Cl)cc(Cl)c3)CC2)C1c1ccc(Cl)cc1` (stereo not drawn), the IC50 worked out at 212 nM.
As for `CC(C)N1C(=O)C2(CCN(C(=O)Nc3ccc(F)c(F)c3)CC2)C1c1ccc(Cl)cc1` (stereo not drawn), the IC50 amounted to 304 nM.
Turning to `O=C(Nc1ccc(F)c(F)c1)N1CCC2(CC1)C(=O)N(c1ccc(F)cc1)C2c1ccc(Cl)cc1` (stereo not drawn), the IC50 worked out at 293 nM.
On the same count and under the same terms, as for `O=C(Nc1cc(F)cc(F)c1)N1CCC2(CC1)C(=O)N(c1ccc(F)cc1)C2c1ccc(Cl)cc1` (stereo not drawn), the figure is 504 nM; as for `O=C(Nc1ccc(F)c(F)c1)N1CCC2(CC1)C(=O)N(c1ccc(F)cc1)C2c1ccccn1` (stereo not drawn), 490 nM; as for `O=C(Nc1ccccc1)N1CCC2(CC1)C(=O)N(c1cccc(Cl)c1)C2c1ccccn1` (stereo not drawn), 240 nM.
With `O=C(Nc1ccc(F)c(F)c1)N1CCC2(CC1)C(=O)N(c1cccc(Cl)c1)C2c1ccccn1` (stereo not drawn), the IC50 was 117 nM.
With `Cc1c(Cl)cccc1NC(=O)N1CCC2(CC1)C(=O)N(c1ccccc1)C2c1ccccc1` (stereo not drawn) [drawing 414], the IC50 worked out at 192 nM.

For the next assay, the target named is T2, human NPC1L1 (Homo sapiens, UniProt Q9UHC9).
T2 construct: expressed in transfected cells; host or cells: HEK-293 (geneticin selection)
T2 sequence (Q9UHC9 22-1359): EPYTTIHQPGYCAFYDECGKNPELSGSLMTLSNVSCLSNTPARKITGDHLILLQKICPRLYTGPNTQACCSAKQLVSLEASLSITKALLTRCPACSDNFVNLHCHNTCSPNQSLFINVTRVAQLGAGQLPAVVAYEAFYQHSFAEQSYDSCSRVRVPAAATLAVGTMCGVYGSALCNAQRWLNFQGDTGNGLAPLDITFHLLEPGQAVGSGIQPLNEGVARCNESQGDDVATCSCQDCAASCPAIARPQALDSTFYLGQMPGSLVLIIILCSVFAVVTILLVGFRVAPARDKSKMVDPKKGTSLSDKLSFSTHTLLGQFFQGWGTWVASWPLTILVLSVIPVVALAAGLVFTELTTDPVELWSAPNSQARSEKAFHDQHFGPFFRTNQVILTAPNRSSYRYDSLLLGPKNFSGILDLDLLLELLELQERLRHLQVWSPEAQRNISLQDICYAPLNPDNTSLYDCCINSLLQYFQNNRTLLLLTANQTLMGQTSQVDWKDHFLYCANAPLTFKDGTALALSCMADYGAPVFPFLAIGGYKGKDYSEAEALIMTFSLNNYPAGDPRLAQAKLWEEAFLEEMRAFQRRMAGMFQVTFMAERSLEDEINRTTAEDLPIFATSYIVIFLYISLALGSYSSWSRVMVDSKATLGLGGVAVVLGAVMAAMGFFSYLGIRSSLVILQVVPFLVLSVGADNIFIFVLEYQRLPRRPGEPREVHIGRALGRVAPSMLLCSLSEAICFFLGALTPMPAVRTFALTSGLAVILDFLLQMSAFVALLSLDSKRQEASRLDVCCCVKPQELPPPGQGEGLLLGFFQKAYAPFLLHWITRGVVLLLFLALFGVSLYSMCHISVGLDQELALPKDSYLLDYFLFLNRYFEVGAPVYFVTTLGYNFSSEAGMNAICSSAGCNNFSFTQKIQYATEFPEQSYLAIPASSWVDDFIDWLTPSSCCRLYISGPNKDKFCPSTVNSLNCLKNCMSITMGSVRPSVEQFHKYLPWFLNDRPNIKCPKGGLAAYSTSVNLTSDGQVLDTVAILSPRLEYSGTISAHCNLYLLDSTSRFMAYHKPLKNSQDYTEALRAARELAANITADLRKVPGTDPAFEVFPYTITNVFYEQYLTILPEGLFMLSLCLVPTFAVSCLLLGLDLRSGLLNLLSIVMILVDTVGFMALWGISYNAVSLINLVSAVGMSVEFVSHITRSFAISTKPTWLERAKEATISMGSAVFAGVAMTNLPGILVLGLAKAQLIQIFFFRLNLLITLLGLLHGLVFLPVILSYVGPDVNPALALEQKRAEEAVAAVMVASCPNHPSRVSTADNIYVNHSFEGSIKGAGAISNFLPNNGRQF
Briefly: NPC1L1 Binding Assay, human. The settings on record: HEK-293 cells expressing human NPC1L1; competition with 250 nM BODIPY-labeled glucuronidated ezetimibe, 4 h at 37° C. As to the method:
HEK-293 cells expressing human NPC1L1 were plated into 384-well black/clear plates (BD Biosciences, Bedford Mass.) for binding experiments the following day. Cell growth media (DMEM, 10% fetal calf serum, 1 mg/mL geneticin, 100 Units/mL penicillin) was aspirated. Cell growth media ([…]) containing 250 nM BODIPY-labeled glucuronidated ezetimibe was added to each well. Cell growth media ([…] containing the indicated concentration of compound was then added to the wells unlabeled glucuronidated ezetimibe […]) was used to determine nonspecific binding. The binding reaction was allowed to proceed for 4 h at 37° C. Subsequently the cell growth media was aspired and the cells washed once with PBS. The remaining fluorescent labeled glucuronidated ezetimibe bound to the cells was quantified using a FlexStation plate reader (Molecular Devices, Sunnyvale Calif.) to measure fluorescence intensity. Ki values were determined from competition binding curves (n=4 for each point) using Prism and Activity Base software.
Take `COc1ccc(Cl)cc1NC(=O)N1CCC2(CC1)C(=O)N(c1ccccc1)C2c1ccccc1` (stereo not drawn): the Ki is 6360 nM.
`O=C(Nc1ccccc1C(F)(F)F)N1CCC2(CC1)C(=O)N(c1ccccc1)C2c1ccccc1` (stereo not drawn) gave an inhibition constant (Ki) of 8130 nM.
Take `Cc1cccc(C)c1NC(=O)N1CCC2(CC1)C(=O)N(c1ccccc1)C2c1ccccc1` (stereo not drawn): the affinity corresponds to a Ki of 8190 nM. The Ki values of the last two molecules are within 1.5-fold of each other.
Still for that read-out and setting: as for `O=C(Nc1cccc2ccccc12)N1CCC2(CC1)C(=O)N(c1ccccc1)C2c1ccccc1` (stereo not drawn), the figure is 2490 nM.

In another assay the target is T3, TRPV1 (Homo sapiens, UniProt Q8NER1).
T3 construct: expressed in transfected cells; host or cells: HEK293-Tet-OFF
T3 sequence (Q8NER1 whole entry, species assumed): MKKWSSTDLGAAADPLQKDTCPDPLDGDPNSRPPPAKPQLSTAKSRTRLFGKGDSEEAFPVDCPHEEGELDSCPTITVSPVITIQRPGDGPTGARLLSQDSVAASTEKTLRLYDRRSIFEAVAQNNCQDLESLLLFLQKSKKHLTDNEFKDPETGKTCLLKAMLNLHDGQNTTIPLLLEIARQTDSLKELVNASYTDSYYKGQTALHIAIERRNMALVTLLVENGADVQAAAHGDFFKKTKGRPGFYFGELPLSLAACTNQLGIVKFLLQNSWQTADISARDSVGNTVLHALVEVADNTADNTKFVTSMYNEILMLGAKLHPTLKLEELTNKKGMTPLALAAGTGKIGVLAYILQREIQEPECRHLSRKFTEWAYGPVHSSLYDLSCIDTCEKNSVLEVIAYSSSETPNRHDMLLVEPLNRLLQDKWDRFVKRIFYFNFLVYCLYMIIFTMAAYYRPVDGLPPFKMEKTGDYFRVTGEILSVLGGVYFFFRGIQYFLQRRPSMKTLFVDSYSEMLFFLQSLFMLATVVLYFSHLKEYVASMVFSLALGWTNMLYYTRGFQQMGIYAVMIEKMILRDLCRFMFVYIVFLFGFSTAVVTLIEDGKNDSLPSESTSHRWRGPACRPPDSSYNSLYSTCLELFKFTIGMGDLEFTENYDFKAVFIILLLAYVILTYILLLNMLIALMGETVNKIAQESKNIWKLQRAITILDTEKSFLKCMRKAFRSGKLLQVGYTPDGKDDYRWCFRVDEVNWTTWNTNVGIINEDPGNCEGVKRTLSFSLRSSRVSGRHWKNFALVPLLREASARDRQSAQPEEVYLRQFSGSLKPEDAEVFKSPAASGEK
Briefly: TRPV1 Screening Assay (FLIPR). The assay is classed as cell-based. As to conditions: HEK293-TetOFF-TRPV1, capsaicin (50 nM final), read-out: VR1 flipr CAPSAICIN IC50. The text has this: • 1) Cell line: HEK293-Tet^OFF-TRPV1 • 2) Media: MEM (Invitrogen) • 3) 10% Tet-FBS (Clontech #8630-1) • 4) Fungizone (Gibco #15290-018 (100×)) • 5) Penn/Strep (Gibco #15140-122 (100×)) • 6) Geneticin (Gibco #10131-027 (100×)) • 7) Hygromycin (Clontech #8057-1) • 8) Doxycycline (Clontech #8634-1) • 9) Trypsin/EDTA (Gibco #25200-056) • 10) 100 mm cell culture plates (Falcon #3003) • 11) 96-well poly-D-lysine plates (Fisher #08-774-256) • 12) Hank's Balanced Salt Solution (HBSS) (GIBCO #14025-092) • 13) HEPES Buffer (GIBCO #15630-080) • 14) 30% BSA (Research Organics #1334A) • 15) Probenecid (Sigma P-8761) • 16) Fluo-4, AM (50 μg) (Molecular robes F-23917) • 17) Pluronic F-127 20% (Molecular Probes P-3000). • 18) capsazepine (Sigma C-191) • 19) capsaicin (Sigma M-2028) • 20) compound plates (NUNC #442587) • 21) black pipet tips 96-well FLIPR (Robbins Scientific 1043-24-0) • 22) Additional reagents available from Fisher: methanol, DMSO, NaOH Reagent Preparation: 1) Cells: HEK293-Tet^OFF-TRPV11
• and Doxycycline 2.5 μg/mL final (from a 1000× stock in PBS) • Cells must be fed and/or split every 2-3 days (to maintain transcriptional repression with Doxycycline). • Must be split no more than 1:5 (50-75% confluency) to maintain growth and viability. • Grown on regular tissue culture plates (e.g. Falcon 3003-100 mm) • SpliT-cells via Trypsin/EDTA: incubate with trypsin at room temperature no longer than 5 min (HEK293 cells have a tendency to ball up if over trypsinized). • Two days prior to assay, the cells are split into 96-well plates in cell media in the absence of doxycycline at a concentration of 40,000 cells/well in a volume of 200 μL, 2) FLIPR buffer is prepared fresh:
Add 5 mL of Probenecid Solution, prepared as follows: 710 mg of probenecid (Sigma P-8761) is solubilized in 5 mL of 1 N NaOH, 5 mL of above buffer s added for final volume of 10 mL (of which 5 mL goes back into FLIPR buffer)
Combine 42 μL of dye mixture with 11 mL of FLIPR buffer/96-well plate.
Stock solution of 0.1 M capsaicin is prepared in MeOH (50 mg+1.6 mL MeOH). Store 50 μL aliquots at −80° C.
For assay: • a) Dilute stock by adding 0.8 μL into 1 mL of MeOH (final=80 μM). • b) Add 50 μL of diluted stock to 20 mL of FLIPR buffer (final=0.2 μM) • c) Agonist solution is added 150 μL/well to 96-well plate. • d) Final agonist concentration on cells will be 50 nM. […] Laser is adjusted upwards for an average signal≧10,000/well and less than 10% variability. 7) Compound addition conditions are as follows: • FLIPR setup (dual sequence parameters): • Sequence 1: • First interval 1 sec/60 counts • Second interval 6 sec/50 counts • Fluid addition=50 μL • Pipettor=110 μL • Dispense Speed=30 μL/sec • Sequence 2: • Second interval 1 sec/60 counts • Second interval 6 sec/40 counts • Fluid addition=50 μL • Pipettor height=140 μL • Dispense Speed=50 μL/sec Data Analysis:
1) Data from both additions is reported as Max-Min for each well
`O=C(Nc1ccc(C(F)(F)F)cc1)N1CCC2(CC1)C(=O)N(c1ccccc1)C2c1ccccc1` (stereo not drawn): the 50% inhibitory concentration (IC50) came out at 171 nM.
As for `O=C(Nc1ccc(C(F)(F)F)cc1)N1CCC2(CC1)C(=O)N(c1cncnc1)C2c1ccccc1` (stereo not drawn), the IC50 amounted to 184 nM.
Consider `O=C(Nc1cccc2ccccc12)N1CCC2(CC1)C(=O)N(c1ccccc1)C2c1ccccn1` (stereo not drawn), for which the IC50 turned out to be 201 nM.
Turning to `CC(C)c1ccc(NC(=O)N2CCC3(CC2)C(=O)N(c2cncnc2)C3c2ccccc2)cc1` (stereo not drawn), the IC50 is 240 nM.

The next assay concerns the target T3, TRPV1. Briefly: TRPV1 Screening Assay (FLIPR). The assay is classed as cell-based. The settings on record: HEK293-TetOFF-TRPV1, PMA, read-out: VR1 flipr PMA IC50.
For `O=C(Nc1ccc(C(F)(F)F)cc1)N1CCC2(CC1)C(=O)N(c1cncnc1)C2c1ccccc1` (stereo not drawn), the IC50 was found to be 210 nM.
`O=C(Nc1cccc2ccccc12)N1CCC2(CC1)C(=O)N(c1ccccc1)C2c1ccccn1` (stereo not drawn): the IC50 was determined as 233 nM.
Consider `CC(C)c1ccc(NC(=O)N2CCC3(CC2)C(=O)N(c2cncnc2)C3c2ccccc2)cc1` (stereo not drawn), for which the half-inhibitory concentration (IC50) was 155 nM.
